Data: PMC6150220, “An Optimized and Sensitive Pharmacokinetic Quantitative Method of Investigating Gastrodin, Parishin, and Parishin B, C and E in Beagle Dog Plasma using LC-MS/MS after Intragastric Administration of Tall Gastrodia Capsules” (Molecules : A Journal of Synthetic Chemistry and Natural …, 2017)

Test: in vivo
Description: After full validation, the LC-ESI-MS/MS method was used to analyze large batches of beagle dog plasma. […] The corresponding pharmacokinetic parameters were generated by fitting plasma concentration profiles to a non-compartmental model. These are summarized in Table 3, expressed as the mean ± SD (n = 5).
Quantitative analysis was conducted on a 1290 UPLC-photodiode array 6460 triple quadrupole mass spectrometry system (LC-MS/MS, Agilent Technologies, Palo Alto, CA, USA). Analysis was carried out on. Separation of analytes was performed on a reversed phase Agilent Zorbax XDB-C18 HPLC column (2.1 mm × 50 mm, particle size 3.5 μm) with the column oven set to 30 °C. The elution gradient was carried out with a binary solvent system consisting of an aqueous solution of 0.4% v/v formic acid in water (A) and acetonitrile (B) at a flow rate of 0.15 mL/min. Optimized separation was obtained according to a linear gradient (0–2 min, 2% B; 2–4 min, 2–12% B; 4–8 min, 12–20% B; 8–14 min, 20–28% B; […], 28–90% B). MS/MS conditions were as follows: negative ion mode, drying gas (N2) flow rate 8.0 L/min, drying gas temperature 300 °C, declustering potential 150 V, nebulizer pressure 45 psi, ESI Vcap 3500 V, sheath gas temperature 300 °C, sheath gas flow 12 L/min, nozzle voltage 500 V. The mass transition of gastrodin (m/z 331.1→123.0, CE: 3 eV), parishin (m/z 995.4→727.0, CE: 42 eV), parishin B (m/z 727.3→423.0, CE: 20 eV), parishin C (m/z 727.3→423.1, CE: 20 eV), parishin E (m/z 459.3→110.9, CE: 19 eV) and bergenin (m/z 327.0→234.0, CE: 4 eV).
Adult male […] beagle dogs (12 kg ± 0.020 kg) were purchased from Beijing Shahe Bio-Technology (Beijing, China; certificate No. SCXK2014-0007). Before drug administration, the dogs were fasted for 12 h with free access to water. They were maintained on a 12 h light-dark cycle (light on from 6:00 to 18:00 h) at ambient temperature (22–24 °C) with 60% relative humidity. The animals were observed twice daily and body weights were recorded once per day to assess their general health. All experimental protocols on animals were carried out according to the Guidelines of the Committee on the Care and Use of Laboratory Animals of China.
Fifteen beagle dogs were randomly divided into three groups to receive an intragastric dose of tall Gastrodia capsules (0.125, 0.25 and 0.5 g/kg). Capsules were ultrasonically dissolved in pure water and suspended at concentrations of 5, 10 and 20 mg/mL for intragastric administration. […] The HPLC quantitative analysis was based on the previous report with some modification. After administration, serial blood samples (about 2.00 mL) were collected from the foreleg vein […] into heparin-containing capillary tubes at 10, 20, 30, 45, 60, 120, 180, 240, 480, 720 and 1440 min. Blood samples were promptly centrifuged at 5000 rpm for 5 min, and the plasma was separated and stored at −20 °C until analysis.
Plasma samples were thawed to 4 °C before processing. An aliquot of 200 μL of the plasma sample was transferred into an Eppendorf tube, and 1000 μL of ice-cold 1% formic acid methanol containing IS (10 μL, 2.0 μg/mL) was added to precipitate the plasma proteins. Samples were then vortexed for 3 min and centrifuged at 12,000 rpm for 10 min. The supernatant was transferred and evaporated to dryness under a gentle stream of nitrogen at 40 °C. The residue was reconstituted in 200 μL of 5.0% methanol–water, and a 10 μL aliquot was injected for analysis.

[1] = male, beagle, dog, in vivo, po, 0.125 g/kg
[2] = male, beagle, dog, in vivo, po, 0.25 g/kg
[3] = male, beagle, dog, in vivo, po, 0.5 g/kg

AUC(0-inf) [1] | AUC(0-t) [1] | Cmax [1] | MRT inf [1] | MRT last [1] | Tmax [1] | half-life [1] | AUC(0-inf) [2] | AUC(0-t) [2] | Cmax [2] | MRT inf [2] | MRT last [2] | Tmax [2] | half-life [2] | AUC(0-inf) [3] | AUC(0-t) [3] | Cmax [3] | MRT inf [3] | MRT last [3] | Tmax [3] | SMILES | further results
359 ± 99.3 ng·h/mL | 349 ± 100 ng·h/mL | 107 ± 29.4 ng/mL | 2.7 ± 0.28 h | 2.47 ± 0.28 h | 1.35 ± 0.6 h | 1.37 ± 0.18 h | 578 ± 200 ng·h/mL | 567 ± 198 ng·h/mL | 144 ± 55.1 ng/mL | 3.31 ± 0.59 h | 3.14 ± 0.54 h | 2 ± 0.71 h | 1.56 ± 0.41 h | 1100 ± 527 ng·h/mL | 1090 ± 523 ng·h/mL | 243 ± 99.6 ng/mL | 3.25 ± 0.72 h | 3.18 ± 0.69 h | 2.4 ± 0.55 h | O=C(CC(O)(CC(=O)OCc1ccc(O[C@@H]2O[C@H](CO)[C@@H](O)[C@H](O)[C@H]2O)cc1)C(=O)O)OCc1ccc(O[C@@H]2O[C@H](CO)[C@@H](O)[C@H](O)[C@H]2O)cc1 [Parishin C, parishin C] | Mean plasma clearance (CL) (male, beagle, dog, in vivo, po): 16 mL/min/kg; CL (plasma clearance) [1]: 12 ± 3.83 mL/min/kg; CL (plasma clearance) [2]: 15.2 ± 3.83 mL/min/kg; CL (plasma clearance) [3]: 21 ± 17.5 mL/min/kg; half-life [3]: 1.29 ± 0.36 h
1570 ± 533 ng·h/mL | 1550 ± 530 ng·h/mL | 526 ± 143 ng/mL | 2.32 ± 0.25 h | 2.25 ± 0.26 h | 1.25 ± 0.69 h | 1.08 ± 0.11 h | 2720 ± 1140 ng·h/mL | 2700 ± 1130 ng·h/mL | 746 ± 320 ng/mL | 2.84 ± 0.44 h | 2.78 ± 0.42 h | 1.8 ± 0.45 h | 1.18 ± 0.29 h | 4720 ± 2330 ng·h/mL | 4700 ± 2330 ng·h/mL | 1220 ± 562 ng/mL | 2.8 ± 0.42 h | 2.76 ± 0.44 h | 2 ± 0.71 h | O=C(O)CC(O)(CC(=O)OCc1ccc(OC2OC(CO)C(O)C(O)C2O)cc1)C(=O)OCc1ccc(OC2OC(CO)C(O)C(O)C2O)cc1 (centres unmarked) [Parishin B, parishin B] | Mean plasma clearance (CL) (male, beagle, dog, in vivo, po): 14.5 mL/min/kg; CL (plasma clearance) [1]: 12 ± 6.5 mL/min/kg; CL (plasma clearance) [2]: 13 ± 3.83 mL/min/kg; CL (plasma clearance) [3]: 18.5 ± 14 mL/min/kg; half-life [3]: 1.17 ± 0.22 h
899 ± 299 ng·h/mL | 868 ± 314 ng·h/mL | 388 ± 116 ng/mL | 2 ± 0.3 h | 1.8 ± 0.42 h | 1 ± 0.56 h | 1.15 ± 0.18 h | 1520 ± 832 ng·h/mL | 1500 ± 836 ng·h/mL | 462 ± 230 ng/mL | 2.65 ± 0.44 h | 2.49 ± 0.4 h | 1.55 ± 0.62 h | 1.38 ± 0.34 h | 3280 ± 1370 ng·h/mL | 3270 ± 1370 ng·h/mL | 969 ± 292 ng/mL | 2.5 ± 0.35 h | 2.48 ± 0.36 h | 1.45 ± 0.76 h | O=C(CC(O)(CC(=O)OCc1ccc(OC2OC(CO)C(O)C(O)C2O)cc1)C(=O)OCc1ccc(OC2OC(CO)C(O)C(O)C2O)cc1)OCc1ccc(OC2OC(CO)C(O)C(O)C2O)cc1 (centres unmarked) [Parishin, parishin] | Mean plasma clearance (CL) (male, beagle, dog, in vivo, po): 52.3 mL/min/kg; CL (plasma clearance) [1]: 44.8 ± 16.8 mL/min/kg; CL (plasma clearance) [2]: 59.3 ± 29.2 mL/min/kg; CL (plasma clearance) [3]: 53 ± 27.5 mL/min/kg; half-life [3]: 1.05 ± 0.16 h

SMILES | AUC(0-inf) [1] | AUC(0-t) [1] | Cmax [1] | MRT inf [1] | MRT last [1] | Tmax [1] | half-life [1] | AUC(0-inf) [2] | AUC(0-t) [2] | Cmax [2] | MRT inf [2] | MRT last [2] | Tmax [2] | half-life [2] | AUC(0-inf) [3] | AUC(0-t) [3] | Cmax [3] | MRT inf [3] | MRT last [3] | Tmax [3] | further results
OCc1ccc(O[C@@H]2O[C@H](CO)[C@@H](O)[C@H](O)[C@H]2O)cc1 [Gastrodin, gastrodin] | 5080 ± 2110 ng·h/mL | 4890 ± 2060 ng·h/mL | 1200 ± 120 ng/mL | 3.33 ± 1.09 h | 2.98 ± 1.01 h | 1.1 ± 0.52 h | 1.86 ± 0.67 h | 9170 ± 1790 ng·h/mL | 8830 ± 1860 ng·h/mL | 2050 ± 495 ng/mL | 3.8 ± 0.28 h | 3.46 ± 0.29 h | 1.75 ± 0.9 h | 1.9 ± 0.26 h | 17600 ng·h/mL | 17000 ng·h/mL | 3760 ± 778 ng/mL | 3.93 ± 0.99 h | 3.54 ± 0.69 h | 2 ± 0.71 h | Time after administration at which detected in plasma (beagle dog plasma, intragastric capsules, all three dosage levels): 10 min; CL (plasma clearance) (beagle dog plasma, intragastric tall Gastrodia capsules, high dose 0.5 g/kg, mean ± SD, n = 5): 3.5 ± 0.83 mL/min/kg; CL (plasma clearance) (beagle dog plasma, intragastric tall Gastrodia capsules, low dose 0.125 g/kg, mean ± SD, n = 5): 3.5 ± 2.17 mL/min/kg; CL (plasma clearance) (beagle dog plasma, intragastric tall Gastrodia capsules, medium dose 0.25 g/kg, mean ± SD, n = 5): 3.33 ± 0.67 mL/min/kg; Mean plasma clearance (CL) (beagle dogs, mean over the three intragastric dose levels of tall Gastrodia capsules): 3.3 mL/min/kg; half-life [3]: 2.09 ± 0.68 h
